Assay results as given in paper PMC2982795 (Nature structural & molecular biology, 2009).
Where two headings read alike, the source gives them in different places. Values belong to the compound of their own block, whether it stands above or below them.

How the values were obtained:
hMSH2/MSH3 [1] = target: T1, hMSH2/MSH3 (Homo sapiens, UniProt P20585+P43246); assay: fluorescence anisotropy competition, displacement of pre-bound BD-ADP; type: binding
hMSH2/MSH6 [2] = target: T2, hMSH2/MSH6 (Homo sapiens, UniProt P43246+P52701); assay: UV cross-linking of [alpha-32P]-ADP, SDS-PAGE; type: binding
hMSH2/MSH3 [3] = target: T1, hMSH2/MSH3; assay: UV cross-linking of [alpha-32P]-ADP, SDS-PAGE; type: binding; conditions: 5 mM Mg2+; pH 8.1; no DNA; either hMSH2 or hMSH3 subunit
hMSH2/MSH3 [4] = target: T1, hMSH2/MSH3; assay: UV cross-linking of [alpha-32P]-AMP-PNP, SDS-PAGE; type: binding; conditions: +Mg2+; no DNA
hMSH2/MSH6 [5] = target: T2, hMSH2/MSH6; assay: fluorescence anisotropy, equilibrium binding; conditions: no DNA, labelled compound

T1 sequence (P43246 2-934): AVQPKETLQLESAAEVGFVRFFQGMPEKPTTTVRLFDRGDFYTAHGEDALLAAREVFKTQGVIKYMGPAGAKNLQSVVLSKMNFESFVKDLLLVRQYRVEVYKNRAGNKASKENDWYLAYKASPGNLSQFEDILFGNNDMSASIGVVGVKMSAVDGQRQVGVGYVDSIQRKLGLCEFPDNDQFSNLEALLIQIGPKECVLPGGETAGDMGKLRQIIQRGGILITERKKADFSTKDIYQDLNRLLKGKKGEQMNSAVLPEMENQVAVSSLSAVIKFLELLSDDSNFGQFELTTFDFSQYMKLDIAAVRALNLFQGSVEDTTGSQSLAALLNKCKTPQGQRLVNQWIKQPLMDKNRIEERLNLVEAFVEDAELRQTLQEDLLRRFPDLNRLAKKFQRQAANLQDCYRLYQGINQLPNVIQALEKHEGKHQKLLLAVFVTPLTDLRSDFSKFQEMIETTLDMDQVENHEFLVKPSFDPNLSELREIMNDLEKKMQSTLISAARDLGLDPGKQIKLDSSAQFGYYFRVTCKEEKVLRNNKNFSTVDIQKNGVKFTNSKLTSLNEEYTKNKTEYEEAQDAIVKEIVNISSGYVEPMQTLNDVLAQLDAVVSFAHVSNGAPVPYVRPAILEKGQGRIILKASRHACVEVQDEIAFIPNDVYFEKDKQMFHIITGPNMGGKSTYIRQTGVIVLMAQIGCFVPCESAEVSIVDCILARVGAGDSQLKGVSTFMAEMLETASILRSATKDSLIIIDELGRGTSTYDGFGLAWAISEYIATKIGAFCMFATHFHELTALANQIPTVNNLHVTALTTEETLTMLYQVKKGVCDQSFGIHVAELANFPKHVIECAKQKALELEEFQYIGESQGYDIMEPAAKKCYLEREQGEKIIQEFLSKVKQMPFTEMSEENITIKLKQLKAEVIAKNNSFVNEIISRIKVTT
T1 sequence (P20585 whole entry): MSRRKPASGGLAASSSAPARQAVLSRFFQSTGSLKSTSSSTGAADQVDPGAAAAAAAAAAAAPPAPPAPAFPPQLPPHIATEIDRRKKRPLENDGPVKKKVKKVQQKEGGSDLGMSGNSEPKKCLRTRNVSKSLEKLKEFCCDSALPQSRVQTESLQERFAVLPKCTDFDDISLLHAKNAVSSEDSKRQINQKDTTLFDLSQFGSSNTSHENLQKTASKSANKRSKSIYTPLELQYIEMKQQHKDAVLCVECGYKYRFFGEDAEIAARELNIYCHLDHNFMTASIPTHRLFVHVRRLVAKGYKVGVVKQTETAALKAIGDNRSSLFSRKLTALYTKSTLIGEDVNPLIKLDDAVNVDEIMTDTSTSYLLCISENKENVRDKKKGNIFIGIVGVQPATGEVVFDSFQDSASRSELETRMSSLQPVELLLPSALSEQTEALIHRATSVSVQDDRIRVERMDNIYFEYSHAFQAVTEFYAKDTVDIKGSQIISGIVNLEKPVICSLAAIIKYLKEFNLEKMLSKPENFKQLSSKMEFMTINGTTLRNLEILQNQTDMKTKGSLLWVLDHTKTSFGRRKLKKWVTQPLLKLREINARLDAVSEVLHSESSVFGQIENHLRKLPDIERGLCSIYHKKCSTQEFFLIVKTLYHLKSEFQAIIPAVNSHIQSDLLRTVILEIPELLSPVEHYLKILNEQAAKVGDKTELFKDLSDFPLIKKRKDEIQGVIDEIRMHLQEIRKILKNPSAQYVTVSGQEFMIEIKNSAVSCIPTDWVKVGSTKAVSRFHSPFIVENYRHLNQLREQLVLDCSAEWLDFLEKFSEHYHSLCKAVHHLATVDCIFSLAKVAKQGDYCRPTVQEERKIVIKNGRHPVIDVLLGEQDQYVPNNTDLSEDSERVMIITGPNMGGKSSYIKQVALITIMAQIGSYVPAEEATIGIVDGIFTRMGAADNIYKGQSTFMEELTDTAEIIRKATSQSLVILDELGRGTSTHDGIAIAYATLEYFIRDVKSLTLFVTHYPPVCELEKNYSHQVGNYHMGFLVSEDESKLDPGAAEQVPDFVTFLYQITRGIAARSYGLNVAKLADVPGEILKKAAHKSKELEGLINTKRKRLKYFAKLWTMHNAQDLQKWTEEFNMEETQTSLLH
T2 sequence (P43246 2-934): as the sequence (P43246 2-934) above
T2 sequence (P52701 whole entry): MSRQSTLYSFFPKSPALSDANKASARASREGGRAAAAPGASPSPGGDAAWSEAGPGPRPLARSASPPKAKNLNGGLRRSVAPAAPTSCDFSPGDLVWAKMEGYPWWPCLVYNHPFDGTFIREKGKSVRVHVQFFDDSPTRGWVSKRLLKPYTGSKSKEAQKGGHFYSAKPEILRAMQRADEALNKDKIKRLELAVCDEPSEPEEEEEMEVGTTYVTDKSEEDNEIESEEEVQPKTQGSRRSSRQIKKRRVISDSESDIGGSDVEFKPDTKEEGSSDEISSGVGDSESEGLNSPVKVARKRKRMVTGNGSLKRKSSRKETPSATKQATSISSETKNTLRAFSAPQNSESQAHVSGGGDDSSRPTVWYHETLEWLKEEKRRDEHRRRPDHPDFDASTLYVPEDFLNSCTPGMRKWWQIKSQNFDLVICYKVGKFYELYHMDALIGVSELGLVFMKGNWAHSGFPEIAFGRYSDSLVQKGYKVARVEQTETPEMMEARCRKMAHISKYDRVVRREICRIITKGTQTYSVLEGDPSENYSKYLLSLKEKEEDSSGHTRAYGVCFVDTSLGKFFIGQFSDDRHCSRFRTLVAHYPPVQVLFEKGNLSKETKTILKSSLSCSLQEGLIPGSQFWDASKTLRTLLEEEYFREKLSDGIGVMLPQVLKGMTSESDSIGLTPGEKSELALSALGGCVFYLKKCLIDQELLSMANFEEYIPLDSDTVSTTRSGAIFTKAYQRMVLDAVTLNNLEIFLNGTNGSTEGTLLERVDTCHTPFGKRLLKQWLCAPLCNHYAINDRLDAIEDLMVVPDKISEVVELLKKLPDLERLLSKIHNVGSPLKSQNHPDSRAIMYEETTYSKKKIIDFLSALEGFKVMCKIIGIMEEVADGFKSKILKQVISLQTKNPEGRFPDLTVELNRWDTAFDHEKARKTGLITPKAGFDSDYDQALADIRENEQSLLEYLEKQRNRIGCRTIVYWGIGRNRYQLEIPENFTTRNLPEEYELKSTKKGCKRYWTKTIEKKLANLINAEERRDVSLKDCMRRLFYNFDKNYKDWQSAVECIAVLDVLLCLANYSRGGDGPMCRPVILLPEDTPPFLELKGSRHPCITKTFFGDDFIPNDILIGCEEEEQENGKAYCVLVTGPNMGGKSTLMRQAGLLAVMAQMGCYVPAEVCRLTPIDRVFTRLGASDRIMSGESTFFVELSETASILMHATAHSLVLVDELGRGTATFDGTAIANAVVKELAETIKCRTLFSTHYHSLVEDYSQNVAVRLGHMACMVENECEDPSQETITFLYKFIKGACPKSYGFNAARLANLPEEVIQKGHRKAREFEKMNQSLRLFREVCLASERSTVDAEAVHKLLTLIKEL

Kd (hMSH2/MSH6 [2]): 650 nM
Compound: Nc1ncnc2c1ncn2[C@@H]1O[C@H](COP(=O)(O)OP(=O)(O)O)[C@@H](O)[C@H]1O [ADP]
Ki (hMSH2/MSH3 [1]; +Mg2+, no DNA, competitive, hMSH3 subunit): compare KD and Ki for ADP in Supplemental Fig. 1a,c
KD (hMSH2/MSH3 [3]): both subunits bound either nucleotide with high affinity, as quantified by the gel scans

Ki (hMSH2/MSH3 [1]): 11300 nM
Compound: Nc1ncnc2c1ncn2[C@@H]1O[C@H](COP(=O)(O)OP(=O)(O)NP(=O)(O)O)[C@@H](O)[C@H]1O [AMP-PNP]
KD (hMSH2/MSH3 [4]): Results for x-linking with AMP-PNP displayed the same trend

Kd (hMSH2/MSH6 [5]; read-out: binding affinity, +Mg2+): 230 nM
Compound: BD-AMP-PNP

Kd (hMSH2/MSH6 [5]; no Mg2+ (non-hydrolyzing)): 390 nM
Compound: BD-ATP
